Measured values as given in PubChem BioAssay AID248 (DTP/NCI, 2004).
Several values for one entry are separate records, joined by “and”; a condition that tells them apart may be missing. Equal entries are not always repeated. Toxic doses and inconclusive results are not listed. Cut-off read from the data, not from the text of the source: active = T/C of 150% or more; inactive = T/C below 125%.

System: L1210 leukemia ip in BDF1 mice, survival T/C
Assay: NCI In Vivo Anticancer Drug Screen. Data for tumor model L1210 Leukemia (intraperitoneal) in B6D2F1 (BDF1) mice
Details: endpoint: mean survival time, higher = longer survival
Outline: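 Survival endpoint. Drug-treated group vs vehicle group, expressed as T divided by C. Tumor passaged by transplantation.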

[1] = dose: 50.0 mg/kg/injection, schedule: Q01DX001 (ip), vehicle: carboxymethylcellulose (CMC)
[2] = dose: 100.0 mg/kg/injection, schedule: Q01DX001 (ip), vehicle: carboxymethylcellulose (CMC)
[3] = dose: 200.0 mg/kg/injection, schedule: Q01DX001 (ip), vehicle: carboxymethylcellulose (CMC)
[4] = dose: 400.0 mg/kg/injection, schedule: Q01DX001 (ip), vehicle: carboxymethylcellulose (CMC)
[5] = dose: 100.0 mg/kg/injection, schedule: Q01DX001 (ip), vehicle: saline
[6] = dose: 100.0 mg/kg/injection, schedule: Q04DX002 (ip), vehicle: Klucel (hydroxypropylcellulose) (HPC)
[7] = dose: 100.0 mg/kg/injection, schedule: Q01DX001 (ip), vehicle: saline with Tween-80
[8] = dose: 200.0 mg/kg/injection, schedule: Q01DX001 (ip), vehicle: saline with Tween-80
[9] = dose: 100.0 mg/kg/injection, schedule: Q01DX009 (ip), vehicle: saline with Tween-80
[10] = dose: 200.0 mg/kg/injection, schedule: Q01DX009 (ip), vehicle: saline with Tween-80
[11] = dose: 100.0 mg/kg/injection, schedule: Q04DX003 (ip), vehicle: saline with Tween-80
[12] = dose: 200.0 mg/kg/injection, schedule: Q04DX003 (ip), vehicle: saline with Tween-80
[13] = dose: 400.0 mg/kg/injection, schedule: Q01DX009 (ip), vehicle: saline with Tween-80
[14] = dose: 400.0 mg/kg/injection, schedule: Q04DX003 (ip), vehicle: saline with Tween-80
[15] = dose: 100.0 mg/kg/injection, schedule: Q01DX009 (ip), vehicle: Klucel (hydroxypropylcellulose) (HPC)
[16] = dose: 200.0 mg/kg/injection, schedule: Q01DX009 (ip), vehicle: Klucel (hydroxypropylcellulose) (HPC)

Measured: T/C

CCOC(=O)N1CCCCC1
inactive: [1] 95 % of control | [2] 95 % of control | [3] 101 % of control and 93 % of control | [4] 104 % of control and 90 % of control

COC(=O)c1cc(C)ccc1C
inactive: [5] 101 % of control | dose: 200.0 mg/kg/injection, schedule: Q01DX001 (ip), vehicle: saline 98 % of control | dose: 400.0 mg/kg/injection, schedule: Q01DX001 (ip), vehicle: saline 101 % of control

CCOC(=O)Nc1cncc(NC(=O)OCC)n1
inactive: dose: 6.25 mg/kg/injection, schedule: Q01DX009 (ip), vehicle: water 96 % of control | dose: 12.5 mg/kg/injection, schedule: Q01DX009 (ip), vehicle: water 90 % of control | dose: 25.0 mg/kg/injection, schedule: Q01DX009 (ip), vehicle: water 117 % of control and 91 % of control | dose: 50.0 mg/kg/injection, schedule: Q01DX009 (ip), vehicle: water 93 % of control and 91 % of control | dose: 100.0 mg/kg/injection, schedule: Q01DX009 (ip), vehicle: water 96 % of control and 101 % of control | dose: 200.0 mg/kg/injection, schedule: Q01DX009 (ip), vehicle: water 111 % of control

CC(=O)N(C)c1ccc(/C=C2\C=Cc3ccccc32)cc1
inactive: [1] 96 % of control | [2] 98 % of control | [3] 96 % of control | [4] 96 % of control

C[N+](C)(C)CCCCCCCCCC[N+](C)(C)C
inactive: dose: 0.39 mg/kg/injection, schedule: Q04DX003 (ip), vehicle: saline with Tween-80 99 % of control | dose: 0.78 mg/kg/injection, schedule: Q04DX003 (ip), vehicle: saline with Tween-80 95 % of control | dose: 1.56 mg/kg/injection, schedule: Q04DX003 (ip), vehicle: saline with Tween-80 92 % of control

NC(=O)N/N=C/c1ccc([N+](=O)[O-])cc1
inactive: [6] 96 % of control | dose: 200.0 mg/kg/injection, schedule: Q04DX002 (ip), vehicle: Klucel (hydroxypropylcellulose) (HPC) 110 % of control | dose: 400.0 mg/kg/injection, schedule: Q04DX002 (ip), vehicle: Klucel (hydroxypropylcellulose) (HPC) 107 % of control

CCCCCCCCCC[n+]1cccc(C#N)c1
inactive: dose: 5.0 mg/kg/injection, schedule: Q01DX009 (ip), vehicle: saline 109 % of control | dose: 10.0 mg/kg/injection, schedule: Q01DX001 (ip), vehicle: saline 100 % of control | dose: 10.0 mg/kg/injection, schedule: Q01DX009 (ip), vehicle: saline 98 % of control | dose: 10.0 mg/kg/injection, schedule: Q04DX003 (ip), vehicle: saline 98 % of control | dose: 20.0 mg/kg/injection, schedule: Q01DX001 (ip), vehicle: saline 95 % of control | dose: 20.0 mg/kg/injection, schedule: Q01DX009 (ip), vehicle: saline 93 % of control | dose: 20.0 mg/kg/injection, schedule: Q04DX003 (ip), vehicle: saline 93 % of control | dose: 40.0 mg/kg/injection, schedule: Q01DX001 (ip), vehicle: saline 93 % of control | dose: 40.0 mg/kg/injection, schedule: Q04DX003 (ip), vehicle: saline 94 % of control

CCN(CC)CCC(=O)c1ccc2oc3ccccc3c2c1
inactive: dose: 12.0 mg/kg/injection, schedule: Q01DX001 (ip), vehicle: saline 100 % of control | dose: 25.0 mg/kg/injection, schedule: Q01DX001 (ip), vehicle: saline 90 % of control | dose: 50.0 mg/kg/injection, schedule: Q01DX001 (ip), vehicle: saline 103 % of control | [5] 113 % of control

CC1(C)N=C(N)N=C(N)N1CCCOc1ccc(NC(=O)Nc2cccc(S(=O)(=O)F)c2)cc1
inactive: dose: 25.0 mg/kg/injection, schedule: Q01DX001 (ip), vehicle: saline with Tween-80 102 % of control | dose: 50.0 mg/kg/injection, schedule: Q01DX001 (ip), vehicle: saline with Tween-80 100 % of control

CCCC(C)C(=O)OCP(=O)(COC(=O)C(C)CCC)COC(=O)C(C)CCC (stereo not given)
inactive: [7] 97 % of control | [8] 89 % of control

COc1cc2c(cc1OC)C(CCN1C(=O)CCC1=O)NCC2 (stereo not given)
inactive: [9] 92 % of control | [10] 98 % of control

CCOC(=O)c1cnc2ccc(OC)cc2c1Cl
inactive: [9] 95 % of control | [11] 107 % of control | [10] 101 % of control | [12] 104 % of control | [13] 97 % of control | [14] 96 % of control

C/C(=C\Cl)CN(C)S(=O)(=O)c1ccc(Br)cc1
inactive: [7] 100 % of control and 98 % of control | [15] 94 % of control | [8] 94 % of control and 95 % of control | [16] 89 % of control | dose: 400.0 mg/kg/injection, schedule: Q01DX001 (ip), vehicle: saline with Tween-80 96 % of control and 98 % of control

Nc1c(O)c(Cl)cc(Cl)c1Cl
inactive: dose: 100.0 mg/kg/injection, schedule: Q04DX002 (ip), vehicle: other 110 % of control | dose: 200.0 mg/kg/injection, schedule: Q04DX002 (ip), vehicle: other 107 % of control

OCc1cc2ccccc2[nH]1
inactive: [9] 100 % of control | [11] 100 % of control | [10] 100 % of control | [12] 96 % of control | [13] 101 % of control | [14] 100 % of control

NC(CCCNc1nc(O)c(-c2ccccc2)c(=O)[nH]1)C(=O)O (stereo not given)
inactive: dose: 75.0 mg/kg/injection, schedule: Q01DX001 (ip), vehicle: saline 104 % of control | dose: 150.0 mg/kg/injection, schedule: Q01DX001 (ip), vehicle: saline 102 % of control | dose: 300.0 mg/kg/injection, schedule: Q01DX001 (ip), vehicle: saline 102 % of control

COc1cc2c(cc1OC)N(C(C)=O)Cc1ccc(C=O)n1C2
inactive: dose: 25.0 mg/kg/injection, schedule: Q04DX002 (ip), vehicle: Klucel (hydroxypropylcellulose) (HPC) 105 % of control | dose: 50.0 mg/kg/injection, schedule: Q04DX002 (ip), vehicle: Klucel (hydroxypropylcellulose) (HPC) 97 % of control | [6] 90 % of control

O=C(Nc1cccc(C2=NCCN2)c1)c1cccc2c(C(=O)Nc3cccc(C4=NCCN4)c3)cccc12
inactive: dose: 15.0 mg/kg/injection, schedule: Q01DX Z (ip), vehicle: carboxymethylcellulose (CMC) 86 % of control

NCCCCC(=O)NC(CCCCNC(=O)OCc1ccccc1)C(=O)NCCCCC(=O)NC(CCCCNC(=O)OCc1ccccc1)C(=O)NCCCCC(=O)NC(CCCCNC(=O)OCc1ccccc1)C(=O)NCCCCC(=O)NC(CCCCNC(=O)OCc1ccccc1)C(=O)NCCCCC(=O)NC(CCCCNC(=O)OCc1ccccc1)C(=O)O (stereo not given)
inactive: [5] 90 % of control

c1ccc2cc3c(cc2c1)Nc1ccncc1N3
inactive: dose: 12.5 mg/kg/injection, schedule: Q01DX009 (ip), vehicle: saline with Tween-80 106 % of control | dose: 25.0 mg/kg/injection, schedule: Q01DX009 (ip), vehicle: saline with Tween-80 103 % of control | dose: 50.0 mg/kg/injection, schedule: Q01DX009 (ip), vehicle: saline with Tween-80 100 % of control

c1ccc(-c2oc(-c3ccccc3)c3c2CCCC3)cc1
inactive: [15] 100 % of control | [16] 98 % of control | dose: 400.0 mg/kg/injection, schedule: Q01DX009 (ip), vehicle: Klucel (hydroxypropylcellulose) (HPC) 98 % of control
